Experimental data from patent publication US5585492A, “LTA4 Hydrolase inhibitors” (priority 1994, dated 1996).
Read-outs that look alike come from different tables or passages of the source.

System: LTB4 production in human blood
Experiment: Inhibition of Calcium Ionophore-Induced LTB4 Production in Human Blood (HWB)
Assay type: cell-based
Conditions: human whole blood, A23187 20 mcg/ml, read-out: Inhibition of Calcium Ionophore-Induced LTB4 Production in Human Blood IC50 HWB
Experimental: One or more concentrations of the leukotriene A4 hydrolass inhibitor compounds being tested were prepared (diluted in DMSO) and 2 μl added and gently mixed with the diluted whole blood. After incubating for 15 minutes at 37° C. in a humidified incubator, calcium ionophore A23187 (Sigma Chemical Co., St. Louis, Mo.) was added to a final concentration of 20 mcg/ml and the incubation continued under the same conditions for an additional 10 minutes to allow LTB4 formation. The reaction was terminated by centrifugation (833 g, 10 minutes at 4° C.) and supernatant were analyzed for LTB4 and thromboxane by commercially available enzyme-linked immunoassays (Caymen Chemical Co., Ann Arbor, Mich.) according to the manufacturer's instructions. The IC50 of each test compound was determined from the amount of inhibition of LTB4 production as compared to an essentially identical assay in which no inhibitor compound was present.

Structure (SMILES) | IC50 (Homo sapiens) [nM] | IC50 [nM]
Fc1ccc(COc2ccc(OCCN3CCCC3)cc2)cc1 [Example 205] | 1150 | –
O=C(O)C1CCN(CCOc2ccc(Cc3cccc(F)c3)cc2)CC1 [Example 436] | 550 | –
CCOC(=O)C1CCN(CC2Cc3cc(Cc4ccccc4)ccc3O2)CC1 (stereo not drawn) [Example 282] | 1370 | –
c1ccc(Cc2ccc(OCCN3CCCC3)cc2)nc1 [Example 138] | 520 | –
NC(=O)C1CCN(CCOc2ccc(Cc3cccc(F)c3)cc2)CC1 [Example 233] | 490 | –
Fc1ccc(Cc2ccc(OCCN3CCCC3)cc2)cc1 [Example 139] | 580 | –
c1ccc(Cc2ccc(OCCN3CC4CCC3C4)cc2)cc1 (stereo not drawn) [Example 499] | 220 | –
Fc1cccc(COc2ccc(OCCN3CCCC3)cc2)c1 [Example 211] | 620 | –
O=C(O)C1CCN(CCOc2ccc(Cc3cccs3)cc2)CC1 [Example 437] | 693 | –
c1ccc(Cc2ccc(OCCCn3cnc4cccnc43)cc2)cc1 [Example 341A] | 8900 | –
c1ccc(Oc2ccc(OCCn3ccc4ncnc-4c3)cc2)cc1 [Example 349C] | 200 | –
CCOC(=O)CC1CCN(CCOc2ccc(Cc3ccccc3)cc2)CC1 [Example 301] | 828 | –
C[C@@H]1C[C@H](C(N)=O)C[C@H](C)N1CCOc1ccc(Cc2ccccc2)cc1 [Example 316] | 131 | –
c1ccc(Oc2ccc(NCCN3CCCC3)cc2)cc1 [Example 71] | 4260 | –
[O-][S+](CCN1CCCC1)c1ccc(Cc2ccccc2)cc1 (stereo not drawn) [Example 69] | 11800 | –
CC(C)(C)OC(=O)C1CCN(CCCOc2ccc(Cc3ccccc3)cc2)CC1 [Example 263] | 8760 | –
Fc1ccc(Oc2ccc(OCCn3cccc4ncnc3-4)cc2)cc1 [Example 354C] | 1180 | –
COc1ccc(COc2ccc(OCCN3CCCC3)cc2)cc1 [Example 213] | 4650 | –
c1ccc(Oc2ccc(OCCn3cnc4cnccc43)cc2)cc1 [Example 349B] | 320 | –
c1ccc2cc(COc3ccc(OCCN4CCCC4)cc3)ccc2c1 [Example 200] | 1900 | –
CC1CC(C(N)=NO)CCN1CCOc1ccc(Cc2ccccc2)cc1 (stereo not drawn) [Example 445] | 367 | –
O=C(Nc1ccccc1)OC[C@@H]1CCCN1CCOc1ccc(Cc2ccccc2)cc1 [Example 428] | 6600 | –
NC(=S)N1CCN(CCOc2ccc(Cc3ccccc3)cc2)CC1 [Example 458] | 1390 | –

Structure (SMILES) | IC50 (Homo sapiens) [nM] | IC50 [nM]
CC(CN1CCCCCC1)Oc1ccc(Cc2ccccc2)cc1 (stereo not drawn) [Example 404] | 2750 | –
c1ccc2ncc(Cc3ccc(OCCN4CCCC4)cc3)cc2c1 [Example 132] | 500 | –
O=C(O)C1CCN(CCOc2ccc(Cc3ccccc3)s2)CC1 [Example 371] | 650 | –
NC1CCN(CCOc2ccc(Cc3ccccc3)cc2)CC1 [Example 455] | 180 | –
c1ccc(Cc2ccc(OCCCn3cnc4ccncc43)cc2)cc1 [Example 356A] | 1280 | –
Cc1ccc(COc2ccc(OCCN3CCCC3)cc2)cc1 [Example 212] | 3280 | –
NC(=O)C1(O)CCN(CCOc2ccc(Cc3ccccc3)cc2)CC1 [Example 427] | 532 | –
Clc1ccccc1COc1ccc(OCCN2CCCC2)cc1 [Example 208] | 2150 | –
CCC(CN1CCCC1)Oc1ccc(Cc2ccccc2)cc1 (stereo not drawn) [Example 405] | 2010 | –
[O-][n+]1cccc2c1ncn2CCOc1ccc(Cc2ccccc2)cc1 [Example 363] | 57 | –
C1=CC2CC1CN2CCOc1ccc(Cc2ccccc2)cc1 (stereo not drawn) [Example 497] | 216 | –
COc1ccc(Cc2ccc(OCCN3CCC(C(N)=O)CC3)cc2)cc1 [Example 232] | 10000 | –
O=c1[nH]c(C2CCN(CCOc3ccc(Cc4ccccc4)cc3)CC2)no1 [Example 448] | 825 | –
c1ccc(Oc2ccc(OCCn3cnc4ncccc43)cc2)cc1 [Example 348B] | 560 | –
NNC(=O)C1CCN(CCOc2ccc(Cc3ccccc3)cc2)CC1 [Example 419] | 120 | –
CNC(=O)C1CCN(CC2Cc3cc(Oc4ccccc4)ccc3O2)CC1 (stereo not drawn) [Example 296] | 512 | –
CNC(=O)C1CCN(CC2Cc3cc(Cc4ccccc4)ccc3O2)CC1 (stereo not drawn) [Example 295] | 604 | –
c1ccc(Oc2ccc(OCCCn3cnc4cccnc43)cc2)cc1 [Example 350A] | 13600 | –
c1ccc(Cc2ccc(OC(Cc3ccccc3)CN3CCCC3)cc2)cc1 (stereo not drawn) [Example 406] | 4000 | –
C[C@H]1C[C@@H](O)CCN1CCOc1ccc(Cc2ccccc2)cc1 (relative stereo) [Example 465] | 470 | –
c1cc(OCCN2CCCC2)ccc1Cc1ccc2c(c1)OCO2 [Example 130] | 1010 | –
c1ccc(COc2ccc(OCCn3cnc4cnccc43)cc2)cc1 [Example 347B] | 5700 | –
c1ccc2nc(Cc3ccc(OCCN4CCCC4)cc3)ccc2c1 [Example 131] | 25000 | –

Structure (SMILES) | IC50 (Homo sapiens) [nM] | IC50 [nM]
c1ccc(Cc2ccc(OCCCn3cnc4ncccc43)cc2)cc1 [Example 341B] | 930 | –
O=C(CCl)NC1CCN(CCOc2ccc(Cc3ccccc3)cc2)C1 (stereo not drawn) [Example 454] | 610 | –
CC1CCC(C)N1CCOc1ccc(Cc2ccccc2)cc1 (stereo not drawn) [Example 399] | 220 | –
CC1CC(C#N)CCN1CCOc1ccc(Cc2ccccc2)cc1 (stereo not drawn) [Example 444] | 900 | –
CC(=O)N[C@H]1C[C@@H](C)N(CCOc2ccc(Cc3ccccc3)cc2)[C@@H](C)C1 [Example 315] | 648 | –
O=C(CCNCCCOc1ccc(Cc2ccccc2)cc1)N1CCOCC1 [Example 424] | 850 | –
c1ccc(Cc2ccc3c(c2)CC(Cn2cccc4ncnc2-4)O3)cc1 (stereo not drawn) [Example 359C] | 4200 | –
O=C(O)C1C2CN(CCOc3ccc(Cc4ccccc4)cc3)CC21 (stereo not drawn) [Example 435] | 86 | –
OCC1CCCN1CCOc1ccc(Cc2ccccc2)cc1 (stereo not drawn) [Example 385] | 210 | –
CC(CN(C)CCCOc1ccc(Cc2ccccc2)cc1)C(=O)O (stereo not drawn) [Example 432] | 630 | –
FC(F)(F)c1cccc(COc2ccc(OCCN3CCCC3)cc2)c1 [Example 209] | 2340 | –
CC(=O)NC1CCN(CCOc2ccc(Cc3ccccc3)cc2)C1 (stereo not drawn) [Example 256] | – | 420
c1ccc(Oc2ccc(OCCn3cnc4ccccc43)cc2)cc1 [Example 344] | 13500 | –
O=C(OCc1ccccc1)C1CCCN1CCCOc1ccc(Cc2ccccc2)cc1 (stereo not drawn) [Example 258] | 1440 | –
c1ccc(Cc2ccc3c(c2)CC(Cn2cnc4ccncc42)O3)cc1 (stereo not drawn) [Example 358A] | 152 | –
c1ccc(Cc2ccc(OCCCn3cnc4cnccc43)cc2)cc1 [Example 356B] | 750 | –
c1ccc(Cc2ccc(OCCCN3CCCC3)cc2)cc1 [Example 259] | 440 | –
Fc1cccc(Cc2ccc(OCCN3CCCC3)cc2)c1 [Example 142] | 100 | –
c1ccc(Cc2ccc(OCCN3CC4CCC3CC4)cc2)cc1 [Example 500] | 142 | –
C[C@@H]1C[C@H](C(N)=O)CCN1CCOc1ccc(Cc2ccccc2)cc1 (relative stereo) [Example 297] | 359 | –
OC1CCN(CCOc2ccc(Cc3ccccc3)cc2)CC1 [Example 247] | 200 | –
NC(=O)CCNC(=O)C1CCN(CCOc2ccc(Cc3ccccc3)cc2)CC1 [Example 421] | 800 | –
CCOC(=O)[C@@H]1CCN(CCOc2ccc(Cc3ccccc3)cc2)[C@H](C)C1 (relative stereo) [Example 298] | 758 | –

Structure (SMILES) | IC50 (Homo sapiens) [nM] | IC50 [nM]
CCOC(=O)C1C2CN(CCOc3ccc(Cc4ccccc4)cc3)CC21 (stereo not drawn) [Example 325] | 2400 | –
NC(=O)C1CCN(CCOc2ccc(Cc3ccccc3)cn2)CC1 [Example 147] | 730 | –
Fc1ccc(Oc2ccc(OCCn3ccc4ncnc-4c3)cc2)cc1 [Example 355C] | 210 | –
CNC(=O)CCNCCCOc1ccc(Cc2ccccc2)cc1 [Example 422] | 660 | –
c1ccc(Oc2ccc(OCCCn3cnc4ccncc43)cc2)cc1 [Example 351A] | 2720 | –
CC(CN1CCCCC1)Oc1ccc(Cc2ccccc2)cc1 (stereo not drawn) [Example 403] | 3800 | –
NC(=NO)C1CCN(CC2Cc3cc(Cc4ccccc4)ccc3O2)CC1 (stereo not drawn) [Example 446] | 160 | –
CCOC(=O)CC1CCN(CCCOc2ccc(Cc3ccccc3)cc2)CC1 [Example 302] | 2400 | –
c1ccc(Cc2cnc3c(c2)CC(CN2CCCC2)O3)cc1 (stereo not drawn) [Example 287] | 2390 | –
Fc1ccc(Oc2ccc(OCCn3cnc4ncccc43)cc2)cc1 [Example 354B] | 600 | –
COC(=O)CCNCCCOc1ccc(Cc2ccccc2)cc1 [Example 267] | 580 | –
c1ccc(COc2ccc(OCCn3ccc4ncnc-4c3)cc2)cc1 [Example 347C] | 380 | –
NC(=O)N1CCN(CC2Cc3cc(Cc4ccccc4)ccc3O2)CC1 (stereo not drawn) [Example 337] | 628 | –
NC(=O)C1CCCN(CCOc2ccc(Cc3ccccc3)cc2)C1 (stereo not drawn) [Example 243] | 650 | –
O=C(CCNCCCCOc1ccc(Cc2ccccc2)cc1)OCc1ccccc1 [Example 273] | 154 | –
c1ccc(Cc2ccc(OCCCn3ccc4ncnc-4c3)cc2)cc1 [Example 356C] | 340 | –
CCOC(=O)C1CCN(CCOc2ccc(Cc3cccs3)cc2)CC1 [Example 310] | 1350 | –
Brc1ccc(COc2ccc(OCCN3CCCC3)cc2)cc1 [Example 203] | 3300 | –
c1ccc(Oc2ccc(OCCn3cccc4ncnc3-4)cc2)cc1 [Example 348C] | 540 | –
O=C(CCNCCOc1ccc(Cc2ccccc2)cc1)OCc1ccccc1 [Example 266] | 2640 | –
CC(C)(O)CCNCCCOc1ccc(Cc2ccccc2)cc1 [Example 416] | 1970 | –
